Reference: patent US20250270246A1, “LINCOSAMIDES AND USES THEREOF” (President and Fellows of Harvard College, priority 2022, published 2025)
Converted amounts (≈) assume the structure as drawn. “And” between values parts separate entries of the source, which are not always exact repeats. Identical values can stand only once. Counter-ions that a name gives are not always drawn.

Key:
[1] = test system: E. coli ATCC 25922 (HAV#006); assay: MIC by broth microdilution (CLSI); format: cell-based; settings: Escherichia coli, ATCC25922, 24 h, HAV#006, ATCC 25922; CaMHB, 24 h incubation; read-out: MIC E. coli ATCC 25922
In short: (§1)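 Strains were grown overnight on blood agar at 35° C, suspended in CaMHB to 0.5 McFarland, then diluted to 5×10^5 CFU/mL. Compounds (64-0.06 μg/mL, 2.5% final DMSO) were tested by CLSI microdilution. Visible growth was scored after 24 h.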

E. coli lptD mutant = assay: MIC by broth microdilution (CLSI); format: cell-based; settings: Escherichia coli, 24 h, read-out: MIC E. coli lptD mutant, lptD mutant / ΔlptD mutant; CaMHB, 24 h incubation
In short: as §1

[2] = test system: E. faecalis ATCC 29212 (HAV#005); assay: MIC by broth microdilution (CLSI); format: cell-based; settings: Enterococcus faecalis, ATCC29212, 24 h, HAV#005, ATCC 29212; CaMHB, 24 h incubation; read-out: MIC E. faecalis ATCC 29212
In short: as §1

E. faecium JMI-990536 = assay: MIC by broth microdilution (CLSI); format: cell-based; settings: Enterococcus faecium, JMI990536, 24 h, JMI-990536; CaMHB, 24 h incubation; read-out: MIC E. faecium JMI-990536
In short: as §1

H. influenzae ATCC 49247 = assay: MIC by broth microdilution (CLSI); format: cell-based; settings: Haemophilus influenzae, ATCC49247; ATCC 49247; 24 h incubation; read-out: MIC H. influenzae ATCC 49247
In short: as §1

K. pneumoniae JMI-991193 = assay: MIC by broth microdilution (CLSI); format: cell-based; settings: Klebsiella pneumoniae, JMI991193, 24 h, JMI-991193; CaMHB, 24 h incubation; read-out: MIC K. pneumoniae JMI-991193
In short: as §1

[3] = test system: M. catarrhalis ATCC 25238; assay: MIC by broth microdilution (CLSI); format: cell-based; settings: Moraxella catarrhalis, ATCC25238, 24 h incubation
In short: as §1

[4] = test system: S. aureus ATCC 29213 (HAV#001); assay: MIC by broth microdilution (CLSI); format: cell-based; settings: Staphylococcus aureus, ATCC29213, 24 h, HAV#001, ATCC 29213; CaMHB, 24 h incubation; read-out: MIC S. aureus ATCC 29213
In short: as §1

S. aureus Clinical (cfr) = assay: MIC by broth microdilution (CLSI); format: cell-based; settings: Staphylococcus aureus, 24 h, Clinical (cfr); CaMHB, 24 h incubation; read-out: MIC S. aureus Clinical (cfr)
In short: as §1

S. aureus MMX 3035 = assay: MIC by broth microdilution (CLSI); format: cell-based; settings: Staphylococcus aureus, MMX3035, 24 h, MMX 3035; CaMHB, 24 h incubation; read-out: MIC S. aureus MMX 3035
In short: as §1

S. pneumoniae c-ermB = assay: MIC by broth microdilution (CLSI); format: cell-based; settings: Streptococcus pneumoniae, 24 h, read-out: MIC S. pneumoniae c-ermB
In short: as §1

[5] = test system: P. aeruginosa ATCC 27853 (HAV#009); assay: MIC by broth microdilution (CLSI), Chelex 100-treated broth; format: cell-based; settings: Pseudomonas aeruginosa, ATCC27853; HAV#009, ATCC 27853; CaMHB pre-treated with Chelex 100 ion exchange resin, 24 h
Procedure: Minimum inhibitory concentrations (MICs) were determined by the broth microdilution method following the Clinical and Laboratory Standards Institute (CLSI) guidelines. Test organisms consisted of standard reference strains from the American Type Culture Collection (ATCC; Manassa, VA, USA) and clinical isolates obtained from JMI Laboratories Inc. (North Liberty, IA, USA), Micromyx repository (MMX; Kalamazoo, MI, USA), and Massachusetts Eye and Ear Hospital (Boston, USA). Before the start of the MIC experiment, standard and test compound stock solutions were prepared in dimethyl sulfoxide (DMSO, Aldrich D2650) at a stock concentration of 2,560 μg/mL. The compound concentration range typically employed for each experiment was 64-0.06 μg/mL (2.5% final DMSO concentration). Iboxamycin was used as a comparator in all experiments. All bacterial strains were sub-cultured on blood agar plates (tryptic soy agar with 5% sheep blood, Hardy Diagnostics) and incubated overnight at 35° C. Organisms were suspended in cation-adjusted Mueller-Hinton broth (CaMHB, BD 212322) and optical density was adjusted to 0.5 McFarland standard. Suspensions were further diluted to obtain a final inoculum of 5×10^5 CFU/mL for broth microdilution experiments. The minimum concentration of compound required to inhibit visible bacterial growth after 24 h of incubation was recorded as the MIC in μg/mL. MICs for P. aeruginosa were recorded in cation-adjusted Mueller-Hinton broth which had been pre-treated with Chelex 100 ion exchange resin according to procedures reported in Ito et al. Antimicrob Agents Chemother (2016) 60 (12), 7396-7401.

E. coli HAV#038, ΔTolC = assay: MIC by broth microdilution (CLSI); format: cell-based; settings: Escherichia coli, 24 h, read-out: MIC E. coli HAV#038, ΔTolC
In short: as §1

E. coli HAV#040, LptD = assay: MIC by broth microdilution (CLSI); format: cell-based; settings: Escherichia coli, 24 h, read-out: MIC E. coli HAV#040, LptD
In short: as §1

[6] = test system: E. faecium HAV#318, VRE; clinical; assay: MIC by broth microdilution (CLSI); format: cell-based; settings: Enterococcus faecium, CaMHB, 24 h incubation, read-out: MIC E. faecium HAV#318, VRE
In short: as §1

[7] = test system: K. oxytoca HAV#450; Clinical; assay: MIC by broth microdilution (CLSI); format: cell-based; settings: Klebsiella oxytoca, CaMHB, 24 h incubation, read-out: MIC K. oxytoca HAV#450
In short: as §1

S. aureus HAV#016, MRSA = assay: MIC by broth microdilution (CLSI); format: cell-based; settings: Staphylococcus aureus, CaMHB, 24 h incubation
In short: as §1

[8] = test system: S. aureus HAV#202, ATCC 700699; assay: MIC by broth microdilution (CLSI); format: cell-based; settings: Staphylococcus aureus, ATCC700699, CaMHB, 24 h incubation
In short: as §1

[9] = test system: S. pneumoniae HAV#003, ATCC 49619; assay: MIC by broth microdilution (CLSI); format: cell-based; settings: Streptococcus pneumoniae, ATCC49619, CaMHB, 24 h incubation
In short: as §1

[10] = test system: S. pyogenes HAV#004, ATCC 19615; assay: MIC by broth microdilution (CLSI); format: cell-based; settings: Streptococcus pyogenes, ATCC19615, CaMHB, 24 h incubation
In short: as §1

[11] = from C=CCC[C@@H](NC(=O)[C@@H]1[C@@H]2OCC[C@@H](CC(C)C)C[C@H]2CN1C(=O)OC(C)(C)C)[C@H]1O[C@H](SCC=C)[C@H](O)[C@@H](O)[C@H]1O; rcm bond; 10-membered ring; Grubbs II (20 mol%)/benzoquinone; then HCl/MeOH; toluene; 0.2 mM; 0.33 h; 3 steps

Row | Structure (SMILES) | MIC [1] | MIC (E. coli lptD mutant) | MIC [2] | MIC (E. faecium JMI-990536) | MIC (H. influenzae ATCC 49247) | MIC (K. pneumoniae JMI-991193) | MIC [3] | MIC [4] | MIC (S. aureus Clinical (cfr)) | MIC (S. aureus MMX 3035) | MIC (S. pneumoniae c-ermB) | MIC [5] | MIC (E. coli HAV#038, ΔTolC) | MIC (E. coli HAV#040, LptD) | MIC [6] | MIC [7] | MIC (S. aureus HAV#016, MRSA) | MIC [8] | MIC [9] | MIC [10] | further results
1 | CC(C)C[C@@H]1CCO[C@@H]2[C@H](CN[C@@H]2C(=O)N[C@H]2[C@H]3O[C@H](SCCCC/C=C/[C@@H]2C)[C@H](O)[C@@H](O)[C@H]3O)C1 [FSA1610014, (4S,5aS,8S,8aR)-4-isobutyl-N-((1R,9S,10R,11R,12R,13S,14R,E)-12,13,14-trihydroxy-9-methyl-15-oxa-2-thiabicyclo[9.3.1]pentadec-7-en-10-yl) octahydro-2H-oxepino[2,3-c]pyrrole-8-carboxamide] | > 32 µg/mL | 16 µg/mL (≈ 30.4 µM) | 2 µg/mL (≈ 3.8 µM) | 32 µg/mL (≈ 60.8 µM) | 0.25 µg/mL (≈ 0.475 µM) | > 32 µg/mL | 16 µg/mL (≈ 30.4 µM) | 0.5 µg/mL (≈ 0.949 µM) | 32 µg/mL (≈ 60.8 µM) | 32 µg/mL (≈ 60.8 µM) | 16 µg/mL (≈ 30.4 µM) | 32 µg/mL (≈ 60.8 µM) |  |  |  |  |  |  |  |  | 
2 | CC(C)C[C@@H]1CCO[C@@H]2[C@H](CN[C@@H]2C(=O)N[C@@H]2CC/C=C/CS[C@H]3O[C@H]2[C@H](O)[C@H](O)[C@H]3O)C1 [FSA1503054, (4S,5aS,8S,8aR)-4-isobutyl-N-((1R,8R,9R,10R,11S,12R,E)-10,11,12-trihydroxy-13-oxa-2-thiabicyclo[7.3.1]tridec-4-en-8-yl) octahydro-2H-oxepino[2,3-c]pyrrole-8-carboxamide formate salt] | 16 µg/mL |  |  |  |  |  |  | 0.125 µg/mL |  |  |  |  | 1 µg/mL | 4 µg/mL | 16 µg/mL | 32 µg/mL | 0.125 µg/mL | 8 µg/mL | ≤ 0.03 µg/mL | ≤ 0.03 µg/mL | 
3 | CC(C)C[C@@H]1CCO[C@@H]2[C@@H](C1)CN(C(=O)OC(C)(C)C)[C@@H]2C(=O)N[C@@H]1CCC=CCS[C@H]2O[C@H]1[C@H](O)[C@H](O)[C@H]2O |  |  |  |  |  |  |  |  |  |  |  |  |  |  |  |  |  |  |  |  | ring closure, yield after HPLC [11]: 1.3% and 1.7%
4 | CC(C)C[C@@H]1CCO[C@@H]2[C@H](CN[C@@H]2C(=O)N[C@H]2[C@H]3O[C@H](SCCCC/C=C/[C@H]2C)[C@H](O)[C@@H](O)[C@H]3O)C1 [FSA1610016, (4S,5aS,8S,8aR)-4-isobutyl-N-((1R,9R,10R,11R,12R,13S,14R,E)-12,13,14-trihydroxy-9-methyl-15-oxa-2-thiabicyclo[9.3.1]pentadec-7-en-10-yl) octahydro-2H-oxepino[2,3-c]pyrrole-8-carboxamide] | 16 µg/mL (≈ 30.4 µM) | 2 µg/mL (≈ 3.8 µM) | 0.25 µg/mL (≈ 0.475 µM) | 4 µg/mL (≈ 7.59 µM) | ≤ 0.06 µg/mL | 32 µg/mL (≈ 60.8 µM) | 2 µg/mL (≈ 3.8 µM) | 0.125 µg/mL (≈ 0.237 µM) | 16 µg/mL (≈ 30.4 µM) | 16 µg/mL (≈ 30.4 µM) | 8 µg/mL (≈ 15.2 µM) | 4 µg/mL (≈ 7.59 µM) |  |  |  |  |  |  |  |  | 
5 | CC(C)C[C@@H]1CCO[C@@H]2[C@H](CN[C@@H]2C(=O)N[C@H]2[C@H]3O[C@H](SCCCC/C=C\[C@H]2C)[C@H](O)[C@@H](O)[C@H]3O)C1 [FSA1610015, (4S,5aS,8S,8aR)-4-isobutyl-N-((1R,9R,10R,11R,12R,13S,14R,Z)-12,13,14-trihydroxy-9-methyl-15-oxa-2-thiabicyclo[9.3.1]pentadec-7-en-10-yl) octahydro-2H-oxepino[2,3-c]pyrrole-8-carboxamide] | 8 µg/mL (≈ 15.2 µM) | 1 µg/mL (≈ 1.9 µM) | 0.25 µg/mL (≈ 0.475 µM) | 1 µg/mL (≈ 1.9 µM) | ≤ 0.06 µg/mL | 32 µg/mL (≈ 60.8 µM) | 1 µg/mL (≈ 1.9 µM) | 0.125 µg/mL (≈ 0.237 µM) | 2 µg/mL (≈ 3.8 µM) | 8 µg/mL (≈ 15.2 µM) | 4 µg/mL (≈ 7.59 µM) | 4 µg/mL (≈ 7.59 µM) |  |  |  |  |  |  |  |  | 
6 | CC(C)C[C@@H]1CCO[C@@H]2[C@H](CN[C@@H]2C(=O)N[C@@H]2CCCCCS[C@H]3O[C@H]2[C@H](O)[C@H](O)[C@H]3O)C1 [FSA1503058, (4S,5aS,8S,8aR)-4-isobutyl-N-((1R,8R,9R,10R,11S,12R)-10,11,12-trihydroxy-13-oxa-2-thiabicyclo[7.3.1]tridecan-8-yl) octahydro-2H-oxepino[2,3-c]pyrrole-8-carboxamide formate salt] | 16 µg/mL |  |  |  |  |  |  | 0.125 µg/mL |  |  |  |  | 1 µg/mL | 4 µg/mL | 2 µg/mL | 32 µg/mL | 0.125 µg/mL | 4 µg/mL | ≤ 0.03 µg/mL | ≤ 0.03 µg/mL | 
